According to US9717728B2, “Pharmaceutical combination comprising a B-Raf inhibitor and a histone deacetylase inhibitor and their use in the treatment of proliferative diseases” (NOVARTIS AG, priority 2012, dated 2017):
“Also recorded” adds a separate entry of the source.

Experiments:
Mel-P3-Post [1] = experiment: Cell cycle staining and sub-G1 analysis of dead cells (flow cytometry); format: cell-based, human; details: for CELL CYCLE AVG G1 / CELL CYCLE AVG G2/M / CELL CYCLE AVG S / sub-G1 %: Mel-P3-Post, 48 hours
From the text: (§1) Cell lines: Mel-PX-Pre and Mel-PX-post represent cell lines derived from patient-X pre- and post-treatment with vemurafenib.

Mel-P3-Pre [2] = experiment: as above; format: cell-based, human; details: for CELL CYCLE AVG G1 / CELL CYCLE AVG G2/M / CELL CYCLE AVG S / sub-G1 %: Mel-P3-Pre, 48 hours
From the text: as §1

Melanocytes (NHEM) = experiment: as above; format: cell-based; details: for CELL CYCLE AVG G1 / CELL CYCLE AVG G2/M / CELL CYCLE AVG S / sub-G1 %: Melanocytes (NHEM), 48 hours
Mel-P3-Post [3] = experiment: Annexin-V staining per quadrant (flow cytometry); format: cell-based, human; details: 48 hours
From the text: as §1

Mel-P3-Pre [4] = experiment: Annexin-V staining per quadrant (flow cytometry); format: cell-based, human; details: 48 hours
From the text: as §1

Mel-P1-Post = experiment: Sub-G1 analysis of dead cells; format: cell-based, human; details: 48 hours
From the text: as §1

Mel-P1-Pre = experiment: Sub-G1 analysis of dead cells; format: cell-based, human; details: 48 hours
From the text: as §1

Mel-P4-Post = experiment: Sub-G1 analysis of dead cells; format: cell-based, human; details: 48 hours
From the text: as §1

Mel-P4-Pre = experiment: Sub-G1 analysis of dead cells; format: cell-based, human; details: 48 hours
From the text: as §1

Mel-P3-Post [5] = experiment: JC1 staining for mitochondrial depolarisation; format: cell-based, human
From the text: as §1

Mel-P3-Post [6] = experiment: z-VAD-fmk-FITC staining for caspase positive cells; format: cell-based, human; details: 48 hours
From the text: as §1

melanoma lines = experiment: Cell cycle arrest and apoptosis in matched pre and post melanoma cell lines; format: cell-based, human; details: B-Raf-mutant melanoma, listed as B-Raf inhibitor of Formula (I)
Experimental: The B-Raf inhibitor of Formula (I) was tested on the matched pre and post cell lines established from patients before treatment and after progression on vemurafenib treatment. […] Combining panobinostat with the B-Raf inhibitor of Formula (I), caused a synergistic increase in apoptosis in melanoma lines. The increase in apoptosis was also observed in the “post” cell lines which had previously acquired resistance to the B-Raf inhibitor, vemurafenib.

## COC(=O)N[C@@H](C)CNc1nccc(-c2cn(C(C)C)nc2-c2cc(Cl)cc(NS(C)(=O)=O)c2F)n1 [B-Raf]
Mel-P3-Post [1]; B-Raf 0.1 uM, HDAI 0 nM
  CELL CYCLE AVG G1: 65
  CELL CYCLE AVG G2/M: 12
  CELL CYCLE AVG S: 23
  sub-G1 %: 2%
Mel-P3-Post [1]; B-Raf 1 uM, HDAI 0 nM
  CELL CYCLE AVG G1: 68
  CELL CYCLE AVG G2/M: 10
  CELL CYCLE AVG S: 22
  sub-G1 %: 2%
Mel-P3-Post [1]; B-Raf 10 uM, HDAI 0 nM
  CELL CYCLE AVG G1: 72
  CELL CYCLE AVG G2/M: 7
  CELL CYCLE AVG S: 21
  sub-G1 %: 4%
Mel-P3-Post [1]; Mel-P3 “post” cell line
  G1 arrest (in words): weaker G1 arrest
  apoptosis (in words): no apoptosis
Mel-P3-Pre [2]; B-Raf 0.1 uM, HDAI 0 nM
  CELL CYCLE AVG G1: 85
  CELL CYCLE AVG G2/M: 6
  CELL CYCLE AVG S: 10
  sub-G1 %: 10%
Mel-P3-Pre [2]; B-Raf 1 uM, HDAI 0 nM
  CELL CYCLE AVG G1: 90
  CELL CYCLE AVG G2/M: 6
  CELL CYCLE AVG S: 5
  sub-G1 %: 12%
Mel-P3-Pre [2]; B-Raf 10 uM, HDAI 0 nM
  CELL CYCLE AVG G1: 92
  CELL CYCLE AVG G2/M: 4
  CELL CYCLE AVG S: 4
  sub-G1 %: 20%
Mel-P3-Pre [2]; Mel-P3 “pre” cell line
  G1 arrest (in words): potent G1 arrest
  apoptosis (in words): low level apoptosis
Melanocytes (NHEM)
  cell death of melanocytes (in words): did not die
Melanocytes (NHEM); B-Raf 10 uM, HDAI 0 nM
  CELL CYCLE AVG G1: 98
  CELL CYCLE AVG G2/M: 1
  CELL CYCLE AVG S: 1
  sub-G1 %: 3%
Mel-P3-Post [3]; B-Raf 0.1 uM, HDAI 0 nM
  Annexin Staining per quadrant. Lower Left* (“healthy” cells): 91
  Annexin Staining per quadrant. Lower Right: 5
  Annexin Staining per quadrant. Upper Left: 0
  Annexin Staining per quadrant. Upper Right: 4
Mel-P3-Post [3]; B-Raf 1 uM, HDAI 0 nM
  Annexin Staining per quadrant. Lower Left* (“healthy” cells): 91
  Annexin Staining per quadrant. Lower Right: 5
  Annexin Staining per quadrant. Upper Left: 0
  Annexin Staining per quadrant. Upper Right: 4
Mel-P3-Post [3]; B-Raf 10 uM, HDAI 0 nM
  Annexin Staining per quadrant. Lower Left* (“healthy” cells): 89
  Annexin Staining per quadrant. Lower Right: 5
  Annexin Staining per quadrant. Upper Left: 0
  Annexin Staining per quadrant. Upper Right: 6
Mel-P3-Pre [4]; B-Raf 0.1 uM, HDAI 0 nM
  Annexin Staining per quadrant. Lower Left* (“healthy” cells): 88
  Annexin Staining per quadrant. Lower Right: 7
  Annexin Staining per quadrant. Upper Left: 0
  Annexin Staining per quadrant. Upper Right: 4
Mel-P3-Pre [4]; B-Raf 1 uM, HDAI 0 nM
  Annexin Staining per quadrant. Lower Left* (“healthy” cells): 85
  Annexin Staining per quadrant. Lower Right: 8
  Annexin Staining per quadrant. Upper Left: 0
  Annexin Staining per quadrant. Upper Right: 6
Mel-P3-Pre [4]; B-Raf 10 uM, HDAI 0 nM
  Annexin Staining per quadrant. Lower Left* (“healthy” cells): 73
  Annexin Staining per quadrant. Lower Right: 13
  Annexin Staining per quadrant. Upper Left: 1
  Annexin Staining per quadrant. Upper Right: 13
Mel-P1-Post; B-Raf 10 uM, HDAI 0 nM
  sub-G1 %: 10%
Mel-P1-Pre; B-Raf 10 uM, HDAI 0 nM
  sub-G1 %: 10%
Mel-P4-Post; B-Raf 10 uM, HDAI 0 nM
  sub-G1 %: 54%
Mel-P4-Pre; B-Raf 10 uM, HDAI 0 nM
  sub-G1 %: 58%
Mel-P3-Post [5]; B-Raf 5 uM, HDAI 0, 48 hours
  Depolarised mitochondria: 88
Mel-P3-Post [6]; B-Raf 5 uM, HDAI 0 nM
  z-VAD-fmk positive: 14
Melanoma lines
  cell cycle arrest and apoptosis (in words): potent cell cycle inhibition and cell line-dependent apoptosis; also recorded: potent G1 arrest and cell-line dependent apoptosis

## Cc1[nH]c2ccccc2c1CCNCc1ccc(/C=C/C(=O)NO)cc1 [HDAI, reference compound]
Mel-P3-Post [1]; B-Raf 0 uM, HDAI 30 nM
  CELL CYCLE AVG G1: 69
  CELL CYCLE AVG G2/M: 22
  CELL CYCLE AVG S: 9
  sub-G1 %: 15%
Mel-P3-Pre [2]; B-Raf 0 uM, HDAI 30 nM
  CELL CYCLE AVG G1: 70
  CELL CYCLE AVG G2/M: 21
  CELL CYCLE AVG S: 9
  sub-G1 %: 17%
Melanocytes (NHEM)
  cell death of melanocytes (in words): did not die
Melanocytes (NHEM); B-Raf 0 uM, HDAI 30 nM
  CELL CYCLE AVG G1: 88
  CELL CYCLE AVG G2/M: 7
  CELL CYCLE AVG S: 5
  sub-G1 %: 1%
Mel-P3-Post [3]; B-Raf 0 uM, HDAI 30 nM
  Annexin Staining per quadrant. Lower Left* (“healthy” cells): 83
  Annexin Staining per quadrant. Lower Right: 9
  Annexin Staining per quadrant. Upper Left: 0
  Annexin Staining per quadrant. Upper Right: 8
Mel-P3-Pre [4]; B-Raf 0 uM, HDAI 30 nM
  Annexin Staining per quadrant. Lower Left* (“healthy” cells): 85
  Annexin Staining per quadrant. Lower Right: 8
  Annexin Staining per quadrant. Upper Left: 1
  Annexin Staining per quadrant. Upper Right: 6
Mel-P1-Post; B-Raf 0 uM, HDAI 30 nM
  sub-G1 %: 14%
Mel-P1-Pre; B-Raf 0 uM, HDAI 30 nM
  sub-G1 %: 21%
Mel-P4-Post; B-Raf 0 uM, HDAI 30 nM
  sub-G1 %: 24%
Mel-P4-Pre; B-Raf 0 uM, HDAI 30 nM
  sub-G1 %: 40%
Mel-P3-Post [5]; B-Raf 0 uM, HDAI 30, 48 hours
  Depolarised mitochondria: 86
Mel-P3-Post [6]; B-Raf 0 uM, HDAI 30 nM
  z-VAD-fmk positive: 23
